Assay results reported in the supplement of paper PMC10307832.

Experiments:
Assay in all cases: relative viability (nuclei count vs DMSO), 5 days (fraction); higher = more cells survive
Palbociclib + Lapatinib = compound: CC(=O)c1c(C)c2cnc(Nc3ccc(N4CCNCC4)cn3)nc2n(C2CCCC2)c1=O [Palbociclib] + CS(=O)(=O)CCNCc1ccc(-c2ccc3ncnc(Nc4ccc(OCc5cccc(F)c5)c(Cl)c4)c3c2)o1 [Lapatinib] (partner 2 µM)
How it was run: (§1)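 Dosing by pin tool came one day after lung cancer cell lines were seeded in 1536-well plates, using either one drug or a fixed anchor-drug dose plus five library-drug doses (not always all listed) in √10 steps. After 5 days, nuclei were counted on 4× images. Relative viability is treated-well nuclei count divided by vehicle-well nuclei count, and values are medians of duplicate plates.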

Palbociclib + Linsitinib = compound: CC(=O)c1c(C)c2cnc(Nc3ccc(N4CCNCC4)cn3)nc2n(C2CCCC2)c1=O [Palbociclib] + C[C@]1(O)C[C@@H](c2nc(-c3ccc4ccc(-c5ccccc5)nc4c3)c3c(N)nccn32)C1 [Linsitinib] (partner 1 µM)
How it was run: as §1

Palbociclib + Tozasertib = compound: CC(=O)c1c(C)c2cnc(Nc3ccc(N4CCNCC4)cn3)nc2n(C2CCCC2)c1=O [Palbociclib] + Cc1cc(Nc2cc(N3CCN(C)CC3)nc(Sc3ccc(NC(=O)C4CC4)cc3)n2)n[nH]1 [Tozasertib] (partner 0.1 µM)
How it was run: as §1

Palbociclib + Decitabine = compound: CC(=O)c1c(C)c2cnc(Nc3ccc(N4CCNCC4)cn3)nc2n(C2CCCC2)c1=O [Palbociclib] + Nc1ncn([C@H]2C[C@H](O)[C@@H](CO)O2)c(=O)n1 [Decitabine] (partner 2 µM)
How it was run: as §1

Cell Line	relative viability (Palbociclib + Lapatinib; first compound 0.01 µM)	relative viability (Palbociclib + Lapatinib; first compound 0.03162 µM)	relative viability (Palbociclib + Lapatinib; first compound 0.1 µM)	relative viability (Palbociclib + Lapatinib; first compound 0.3162 µM)	relative viability (Palbociclib + Lapatinib; first compound 1 µM)	relative viability (Palbociclib + Linsitinib; first compound 0.01 µM)	relative viability (Palbociclib + Linsitinib; first compound 0.03162 µM)	relative viability (Palbociclib + Linsitinib; first compound 0.1 µM)	relative viability (Palbociclib + Linsitinib; first compound 0.3162 µM)	relative viability (Palbociclib + Linsitinib; first compound 1 µM)	relative viability (Palbociclib + Tozasertib; first compound 0.01 µM)	relative viability (Palbociclib + Tozasertib; first compound 0.03162 µM)	relative viability (Palbociclib + Tozasertib; first compound 0.1 µM)	relative viability (Palbociclib + Tozasertib; first compound 0.3162 µM)	relative viability (Palbociclib + Tozasertib; first compound 1 µM)	relative viability (Palbociclib + Decitabine; first compound 0.01 µM)	relative viability (Palbociclib + Decitabine; first compound 0.1 µM)	relative viability (Palbociclib + Decitabine; first compound 0.3162 µM)	relative viability (Palbociclib + Decitabine; first compound 1 µM)	relative viability (Palbociclib + Decitabine; first compound 0.03162 µM)
NCI-H2228	1.26	0.909	0.923	0.95	0.959	0.51	0.573	0.674	0.598	0.83	0.247	0.235	0.247	0.261	0.23	–	–	–	–	–
NCI-H1299	0.952	0.877	0.86	0.809	0.642	0.961	0.983	0.908	0.866	0.685	–	–	–	–	–	–	–	–	–	–
NCI-H650	1.3	–	0.657	0.818	0.434	0.866	–	0.646	0.635	0.436	0.784	0.378	0.639	0.588	0.576	0.305	0.31	0.306	0.354	–
PC-14	0.348	0.343	0.257	0.202	0.195	1.04	0.847	0.869	0.802	0.689	0.589	–	0.523	0.55	0.4	0.329	0.224	0.27	0.205	0.217
NCI-H838	0.919	0.927	0.767	0.776	0.276	1.07	0.96	0.708	0.82	0.494	0.272	0.248	0.213	0.194	0.204	0.455	0.48	0.434	0.353	0.461
NCI-H727	0.777	0.555	0.417	0.386	0.436	0.226	0.285	0.283	0.289	0.282	0.589	0.482	0.52	0.529	0.405	0.866	0.895	0.829	0.669	0.964
ABC-1	1.01	1.3	1.26	1.07	1.25	1.06	0.925	0.666	0.583	0.382	0.161	0.184	0.18	0.215	0.217	0.948	1.23	0.978	0.873	1.03
RERF-LC-KJ	0.846	0.81	0.817	0.869	0.837	0.954	0.887	0.919	1.04	0.958	0.467	0.446	0.392	0.536	0.534	0.879	0.733	0.748	0.767	0.732
A549	0.868	0.784	0.615	0.474	0.364	0.619	0.38	0.316	0.457	0.274	–	–	–	–	–	0.269	0.245	0.274	0.302	–
NCI-H1437	0.819	0.755	0.693	0.67	0.36	1.02	1.02	0.872	0.847	0.408	0.368	0.351	0.287	0.376	0.307	0.582	0.569	0.494	0.408	0.551
SK-LU-1	1.02	0.856	0.624	0.619	0.529	0.975	1.06	0.777	0.771	0.627	0.334	0.33	0.266	0.251	0.228	0.644	0.6	0.639	0.505	0.659
ChaGo-K-1	–	–	–	–	–	–	–	–	–	–	0.218	0.21	0.25	0.225	0.223	0.517	0.554	0.522	0.518	–
NCI-H441	–	–	–	–	–	0.652	0.383	0.483	0.487	0.275	0.689	0.739	0.577	0.446	0.373	0.22	0.241	0.241	0.236	0.244
NCI-H522	–	–	–	–	–	–	–	–	–	–	0.604	0.517	0.573	0.469	0.539	0.749	0.635	0.736	0.709	0.646
NCI-H2342	–	–	–	–	–	–	–	–	–	–	0.556	0.4	0.493	0.544	0.409	0.744	0.602	0.713	0.582	0.712
NCI-H1650	0.774	0.258	0.263	0.578	0.351	–	–	–	–	–	0.48	0.317	0.44	0.337	0.338	0.414	0.474	0.421	0.349	0.427
NCI-H1703	0.99	–	0.833	0.602	0.451	1.11	0.64	0.673	0.617	0.323	–	–	–	–	–	–	–	–	–	–
NCI-H1792	0.872	0.728	0.882	0.752	0.543	0.52	0.435	0.397	0.371	0.25	–	–	–	–	–	0.567	0.597	0.469	0.389	0.432
Calu-6	1.07	0.897	0.855	0.709	0.53	0.982	0.921	0.784	0.746	0.578	–	–	–	–	–	–	–	–	–	–
CAL-12T	0.759	–	–	0.367	0.334	0.9	0.699	0.768	0.679	0.56	0.294	0.307	0.305	0.259	0.271	–	–	–	–	–
IA-LM	0.701	0.41	0.392	0.264	0.143	0.492	0.399	0.395	0.221	0.118	–	–	–	–	–	–	–	–	–	–
EBC-1	0.221	0.215	0.178	0.191	0.192	0.923	0.843	0.647	0.554	0.293	–	–	–	–	–	–	–	–	–	–
